Earlier results as cited in patent publication US8581001B2, “Metformin-cysteine prodrug” (Codman & Shurtleff, priority 2010, dated 2013).

Key:
[1] = test system: mice
[2] = test system: human patients; settings: human patients (NASH)
[3] = not given; remark: listed apart in the source
[4] = target: T1, LAT2 (Homo sapiens, UniProt Q9UHI5)
T1 sequence (Q9UHI5 1-535): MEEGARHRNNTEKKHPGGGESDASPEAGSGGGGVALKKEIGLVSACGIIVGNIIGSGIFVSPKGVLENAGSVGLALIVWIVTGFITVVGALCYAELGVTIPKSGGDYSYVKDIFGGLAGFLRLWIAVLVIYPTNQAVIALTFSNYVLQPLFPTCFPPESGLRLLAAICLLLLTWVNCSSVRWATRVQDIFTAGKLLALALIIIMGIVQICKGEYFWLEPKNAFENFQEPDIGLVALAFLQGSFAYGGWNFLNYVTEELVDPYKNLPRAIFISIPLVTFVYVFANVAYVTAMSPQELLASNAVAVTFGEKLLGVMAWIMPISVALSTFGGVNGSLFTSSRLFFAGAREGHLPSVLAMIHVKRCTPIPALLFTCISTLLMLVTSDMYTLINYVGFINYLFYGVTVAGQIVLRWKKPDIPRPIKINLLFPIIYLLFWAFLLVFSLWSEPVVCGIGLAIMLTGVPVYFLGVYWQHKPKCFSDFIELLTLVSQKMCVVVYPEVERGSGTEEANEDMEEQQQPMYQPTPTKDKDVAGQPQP
T1 sequence (P08195 1-529 partner): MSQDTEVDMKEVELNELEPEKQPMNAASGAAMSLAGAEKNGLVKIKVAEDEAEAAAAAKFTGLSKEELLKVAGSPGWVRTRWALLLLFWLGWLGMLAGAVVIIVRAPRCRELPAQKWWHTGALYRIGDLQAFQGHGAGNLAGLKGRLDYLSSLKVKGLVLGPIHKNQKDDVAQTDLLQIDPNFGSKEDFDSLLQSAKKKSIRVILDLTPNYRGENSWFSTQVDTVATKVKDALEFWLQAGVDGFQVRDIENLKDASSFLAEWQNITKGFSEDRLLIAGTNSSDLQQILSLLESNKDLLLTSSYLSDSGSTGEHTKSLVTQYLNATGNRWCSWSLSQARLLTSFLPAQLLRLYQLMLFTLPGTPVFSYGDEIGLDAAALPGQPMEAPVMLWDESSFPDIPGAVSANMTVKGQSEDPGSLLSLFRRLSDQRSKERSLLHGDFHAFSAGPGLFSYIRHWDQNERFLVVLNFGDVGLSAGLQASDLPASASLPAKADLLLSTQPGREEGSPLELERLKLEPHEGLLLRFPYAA

[5] = target: LAT1 (Homo sapiens, UniProt Q01650)
Chain of LAT1 (Q01650 whole entry, species assumed, one chain of several): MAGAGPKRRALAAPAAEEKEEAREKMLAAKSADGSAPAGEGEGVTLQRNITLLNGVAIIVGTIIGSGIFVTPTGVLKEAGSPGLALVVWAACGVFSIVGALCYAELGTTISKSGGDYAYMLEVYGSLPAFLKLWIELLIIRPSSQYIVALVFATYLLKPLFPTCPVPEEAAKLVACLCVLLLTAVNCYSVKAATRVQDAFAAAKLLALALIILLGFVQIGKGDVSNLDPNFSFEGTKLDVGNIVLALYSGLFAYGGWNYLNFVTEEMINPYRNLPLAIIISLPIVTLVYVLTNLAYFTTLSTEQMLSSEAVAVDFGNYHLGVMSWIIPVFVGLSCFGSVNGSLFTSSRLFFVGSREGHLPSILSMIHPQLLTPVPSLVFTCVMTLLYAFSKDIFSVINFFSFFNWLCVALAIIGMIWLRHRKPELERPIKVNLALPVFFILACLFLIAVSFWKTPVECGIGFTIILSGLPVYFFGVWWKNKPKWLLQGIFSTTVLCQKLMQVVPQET

N[C@@H](CCC(=O)N[C@@H](CSSC[C@H](N)C(=O)O)C(=O)NCC(=O)O)C(=O)O [Cy-LLGSH]
protection against acetaminophen-induced hepatotoxicity [1]: highly effective

CC(=O)N[C@@H](CS)C(=O)O [NAC, n-acetylcysteine]
amelioration of the complications of non-alcoholic fatty liver disease [2]: neither metformin nor NAC alone provided any significant benefits

CN(C)C(=N)N=C(N)N [metformin]
amelioration of the complications of non-alcoholic fatty liver disease [2]: neither metformin nor NAC alone provided any significant benefits | window in which metformin is above ½ of its Cmax (FIG. 4 of US 2007-0154548): about 6 hours | time window for effective plasma concentrations (in vivo): about 6 hours | absorption in the colon ([3]; colon): poorly absorbed | uptake in the small intestine ([3]; small intestine): effectively taken up

N[C@@H](CSN=O)C(=O)O [s-nitroso-L-cysteine]
transport by LAT2 transporter [4]: efficiently transported | transport by LAT1 transporter [5]: efficiently transported
